This is an account of results in patent US20020061839A1, “Serine peptidase modulators” (priority 1998, published 2002).

For data set [1], the target named is T1, Prolyl oligopeptidase (Homo sapiens, UniProt P48147).
T1 construct: Prolyl oligopeptidase was purified from human platelets; from tissue; host or cells: human platelets
T1 sequence (P48147 1-710): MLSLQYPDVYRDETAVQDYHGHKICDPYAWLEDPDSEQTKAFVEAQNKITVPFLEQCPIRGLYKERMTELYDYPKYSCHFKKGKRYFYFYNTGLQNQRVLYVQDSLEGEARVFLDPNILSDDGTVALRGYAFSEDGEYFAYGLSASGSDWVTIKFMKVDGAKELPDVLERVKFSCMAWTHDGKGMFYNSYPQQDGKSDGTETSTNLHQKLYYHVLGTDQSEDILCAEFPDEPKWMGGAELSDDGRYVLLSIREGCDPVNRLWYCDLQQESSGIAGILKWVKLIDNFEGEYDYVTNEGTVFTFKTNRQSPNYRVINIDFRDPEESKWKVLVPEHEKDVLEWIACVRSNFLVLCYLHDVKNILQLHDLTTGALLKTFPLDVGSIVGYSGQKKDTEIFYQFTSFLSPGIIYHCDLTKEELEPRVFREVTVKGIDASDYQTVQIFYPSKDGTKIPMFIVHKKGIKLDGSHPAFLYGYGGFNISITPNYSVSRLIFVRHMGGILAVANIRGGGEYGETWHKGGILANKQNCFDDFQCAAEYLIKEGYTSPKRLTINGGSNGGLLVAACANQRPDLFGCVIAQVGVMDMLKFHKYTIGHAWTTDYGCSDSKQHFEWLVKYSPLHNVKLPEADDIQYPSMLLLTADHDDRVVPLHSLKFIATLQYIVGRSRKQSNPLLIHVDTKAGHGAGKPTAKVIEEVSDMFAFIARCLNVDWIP
Nature of the data set: Inhibition of prolyl oligopeptidase (PO), Z-Gly-Pro-AMC substrate. It is filed as biochemical. The settings on record: PO from human platelets, 20 min at 37° C. As for the experimental part:
Prolyl oligopeptidase was purified from human platelets and the enzyme activity was measured using Z—Gly—Pro—AMC (4.4 mM) as the substrate in a K-phosphate buffer 100 mM, pH 7.5 containing 1 EM EDTA, 1 mM dithiothreitol and 1 mM NaN3. The incubation was carried out during 20 min at 37° C. The reaction was stopped by the addition of 5 volumes 1.5 M acetic acid. Fluorescence was measured at 370 and 440 nm as excitation and emission wavelengths respectively. The inhibitors were added at concentrations varying between 1 μM and 1 mM.

Data set [2] concerns human peripheral blood mononuclear cells (PBMC). Put plainly: In vitro cytotoxicity in PBMC, trypan blue exclusion. It is filed as cell-based. The settings on record: freshly isolated mononuclear cells or phytohemagglutinin stimulated blasts, concentrations up to 100 μM. As to the method: Peripheral blood mononuclear cells were isolated from buffy coats (obtained from the blood transfusion center of Antwerp). After dilution (¼) in phosphate buffer saline (PBS), cells were layered onto Ficoll-Hypaque density gradient (Pharmacia, Uppsala, Sweden) and centrifuged at room temperature at 550×g during 20 min. The interfaces were collected and washed 3 times in RPMI-1640. Finally the cells were resuspended at 1×10^6 cells/mL in RPMI-1640 containing 10% heat-inactivated foetal calf serum, and antibiotics (penicillin/streptomycin) (Gibco). These freshly isolated cells were used immediately for inhibitor studies or first stimulated with phytohaemagglutinin (Murex diagnostics) at 1 μg/mL during 3 days at 37° C. in a 5% CO2 humidified incubator. Inhibitor (stock solution at −80° C. in phosphate buffer, diluted ex tempore in RPMI-1640) or vehicle alone was added to the cells (5×10^6/test) at different concentrations. After overnight incubation at 37° C., an aliquot was taken for cytotoxicity evaluation by 0.4% trypan blue exclusion. The remaining cells were washed 3 times in PBS and the final cell pellet was solubilised in 200 μL PBS containing 1% v/v Triton X-100 and 100 KIU/mL aprotinin (Bayer) and centrifuged during 10 min at 20000×g. Supernatants were used immediately for enzyme assay and protein determination by the Bradford micro-assay. Specific activities (U/g protein) are compared and the % inhibition is given toward control samples without inhibitor.

Data set [3] can be described thus: Systemic and local toxicity in rats. It is filed as in vivo. As to conditions: for acute systemic or local toxicity: daily subcutaneous injection of 50 mg/kg (initial dose 100 mg/kg). As to the method:
They received standard diet and water ad lib. […] Blood was sampled from the central ear artery. Rats and mice were injected subcutaneously or intraperitoneally.

The nature of data set [4]: Side effects in rabbits after intravenous injection. As to conditions: single intravenous injection of 0.2 mg/kg. It is filed as in vivo. As to the method:
[…]. They received standard diet and water ad lib. […] Blood was sampled from the central ear artery. Rats and mice were injected subcutaneously or intraperitoneally.

Data set [5] in a line: in vitro. The settings on record: human, plasma.
Data set [6] in a line: Graft acceptance upon alloantigen challenge. It is filed as in vivo, rats. The settings on record: monotherapy.
For data set [7], the target named is Dipeptidyl peptidase II. As to conditions: DPP II semi-purified from rabbit kidney, pH 5.5, 20 minutes at 37° C.
Description: After incubation during 20 minutes at 37° C., the reaction was stopped by the addition of 10 fold excess sodium-acetate pH 3.6.

“Also recorded” adds a separate entry of the source.

Consider `C[C@H](NC(=O)OCc1ccccc1)C(=O)Nc1ccc(OP(=O)(Oc2ccc(NC(=O)[C@H](C)NC(=O)OCc3ccccc3)cc2)C2CCCN2C(=O)[C@@H]2CCCN2C(=O)OCc2ccccc2)cc1` (mixture of isomers) [10j, Di[4-(N-benzyloxycarbonyl-(S)-alanylamino)phenyl]-1-(benzyloxycarbonyl-(S)-prolyl)pyrrolidine-2(R,S)-phosphonate], for which the melting point fell in the range of 200 to 203 °C. The compound also yielded an IC50 in data set [1] of over 500 µM.
Consider `O=C1CC[C@@H](C(=O)Nc2ccc(OP(=O)(Oc3ccc(NC(=O)[C@@H]4CCC(=O)N4)cc3)C3CCCN3C(=O)[C@@H]3CCCN3C(=O)OCc3ccccc3)cc2)N1` (mixture of isomers) [10k, Di[4-((S)-pyroglutamylamino)phenyl]-1-(benzyloxycarbonyl-(S)-prolyl)pyrrolidine-2(R,S)-phosphonate], for which the melting point was 170 °C (dec.). The same compound yielded an IC50 in data set [1] of 9 µM.
The compound `CCCNC(=O)c1ccc(OP(=O)(Oc2ccc(C(=O)NCCC)cc2)C2CCCN2C(=O)[C@@H]2CCCN2C(=O)OCc2ccccc2)cc1` (mixture of isomers) [10p, Di[4-(n-propylaminocarbonyl)phenyl]1-(benzyloxycarbonyl-(S)-prolyl)-pyrrolidine-2(R,S)-phosphonate] gave an IC50 in data set [1] of 3.2 µM.
As to `CC(=O)Nc1ccc(OP(=O)(Oc2ccc(NC(C)=O)cc2)C2CCCN2C(=O)[C@@H]2CCCN2)cc1.Cl` (mixture of isomers) [11e, Di(4-acetamidophenyl) 1-((S)-prolyl)pyrrolidine-2(R,S)-phosphonate hydrochloride], the cytotoxicity result in data set [2] (hydrochloride) is recorded as “no cytotoxicity; also recorded: did not show cytotoxicity”. The “acute systemic or local toxicity” value in data set [3] (rats, hydrochloride) was “without any sign of acute systemic or local toxicity; also recorded: no acute systemic or local toxicity”.
As to `CCOC(=O)CNC(=O)c1ccc(OP(=O)(Oc2ccc(C(=O)NCC(=O)OCC)cc2)C2CCCN2C(=O)[C@@H]2CCCN2)cc1` (mixture of isomers) [11n, Di{4-[(ethoxycarbonyl)methylaminocarbonyl]phenyl}1-((S)-prolyl)pyrrolidine-2(R,S)-phosphonate], the side effects result in data set [4] is reported as “without side effects”. In data set [5], this compound showed a half-life at 1 mM of 35 ± 2 min. Also, the cytotoxicity result in data set [2] is “did not show cytotoxicity; also recorded: no cytotoxicity”. The “acute systemic or local toxicity” value in data set [3] (rats) is reported as “without any sign of acute systemic or local toxicity; also recorded: no acute systemic or local toxicity”.
In the case of `O=C([C@@H]1CCCN1)N1CCCC1P(=O)(Oc1ccccc1)Oc1ccccc1` (mixture of isomers) [compound 5, diphenyl 1-(S)-prolyl-pyrrolidine-2-(R,S)-phosphonate], the half-life at 1 mM in data set [5] worked out at 250 ± 10 min. The “systemic toxicity and local ulcerations” value in data set [3] (monotherapy) was “occasionally also caused systemic toxicity and more often local ulcerations”. Besides, the systemic toxicity result in data set [3] (rats, intravenously) is “adequate inhibition could not be reached without severe systemic toxicity”. Besides, the graft acceptance result in data set [6] is on record as “significantly prolonged graft acceptance”.
In data set [5], `Cl.O=C([C@@H]1CCCN1)N1CCC[C@H]1P(=O)(Oc1ccccc1)Oc1ccccc1` [11a (R), Diphenyl 1-((S)-prolyl)pyrrolidine-2(R)-phosphonate hydrochloride] yielded a half-life at 1 mM of 300 ± 30 min. The cytotoxicity result in data set [2] is on record as “no satisfactory inhibition of DPP IV activity could be reached without cytotoxic effects”.
In data set [7], `CC(NC(=O)[C@@H](N)Cc1ccccc1)P(=O)(Oc1ccccc1)Oc1ccccc1` (stereo partly drawn) [Phe-AlaP(OPh)2, Diphenyl 1(R,S)-L-phenylalanyl aminoethane phosphonate] gave an IC50 of 0.8 mM.
Same read-out and setting: under `CC(NC(=O)[C@@H]1CCCN1)P(=O)(Oc1ccccc1)Oc1ccccc1` (stereo partly drawn) [Pro-AlaP(OPh)2, diphenyl 1(R,S)-L-prolyl aminoethane phosphonate] stands 1.5 mM.
